Measurements reported in US20250170090A1, “METHOD FOR PREVENTING OR TREATING DISEASE OR DISORDER ASSOCIATED WITH ANTINEOPLASTIC AGENT” (ONQUALITY PHARMACEUTICALS CHINA LTD., priority 2022, published 2025).
Read-outs that look alike come from different tables or passages of the source.

Experiments:
[1] = tested on: hand-foot syndrome induced by anti-tumor agents; test: Prevention of hand-foot syndrome induced by anti-tumor agents in rats, NO-NSAID ointment on hind paws (Table 2-2); format: in vivo, SD rats; conditions: Rattus norvegicus, topical, 120 h, Sorafenib 80 mg/kg once a day, Days 5, read-out: Control rate
Procedure, shortened: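 Female SD rats (8 weeks, ~200 g; 10/group) received anti-tumour agents by daily oral gavage in Cremophor EL:ethanol 1:1 diluted ~3× with PBS. NO-NSAID or blank ointment was applied to hind paws once daily, 4 h restrained, then wiped off. Control rate = blank-group minus treated-group hand-foot syndrome incidence.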

HUVEC cells = test: CCK-8 cell viability: alleviation of proliferative toxicity of anti-tumor agents on HUVEC cells (Tables 7-1, 7-2); format: cell-based; conditions: for activation at 100 µM: Homo sapiens, 24 h, percentage increase in viable cells vs anti-tumor agent alone, read-out: Response rate % (average)
Procedure, shortened: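 Viability was measured by CCK-8 after 24-48 h of culture. Cells received anti-tumor agent in DMSO with or without co-added NO-NSAID (dissolved in ethanol or sterile water), and results were corrected against the matching NO-NSAID solvent control.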

[2] = Afatinib (10 μM), NO-NSAID 100 μM
[3] = Cabozantinib (5 μM), NO-NSAID 100 μM
[4] = Dabrafenib (10 μM), NO-NSAID 100 μM
[5] = Everolimus (5 μM), NO-NSAID 100 μM
[6] = Infigratinib (15 μM), NO-NSAID 100 μM
[7] = Lapatinib (5 μM), NO-NSAID 100 μM
[8] = Lenvatinib (10 μM), NO-NSAID 100 μM
[9] = Olmutinib (10 μM), NO-NSAID 100 μM
[10] = Regorafenib (5 μM), NO-NSAID 100 μM
[11] = Selumetinib (5 μM), NO-NSAID 100 μM
[12] = Sorafenib (5 μM), NO-NSAID 100 μM
[13] = Sunitinib (5 μM), NO-NSAID 100 μM

CC(C)Cc1ccc(C(C)C(=O)OCO/N=[N+](\[O-])N(C)C)cc1 (stereo not drawn) [Compound A4]
responders at 0.5 % ([1]; ointment 0.50% wt): 42.9%
responders at 2 % ([1]; ointment 2% wt): 71.4%
NO-NSAID response rate % (average) (HUVEC cells; Afatinib (10 μM), NO-NSAID 0.1 μM): 18%
NO-NSAID response rate % (average) (HUVEC cells; Afatinib (10 μM), NO-NSAID 1 μM): 35%
NO-NSAID response rate % (average) (HUVEC cells; [2]): 70%
NO-NSAID response rate % (average) (HUVEC cells; Afatinib (10 μM), NO-NSAID 500 μM): 14%
NO-NSAID response rate % (average) (HUVEC cells; Cabozantinib (5 μM), NO-NSAID 0.1 μM): 3%
NO-NSAID response rate % (average) (HUVEC cells; Cabozantinib (5 μM), NO-NSAID 1 μM): 9%
NO-NSAID response rate % (average) (HUVEC cells; [3]): 13%
NO-NSAID response rate % (average) (HUVEC cells; Cabozantinib (5 μM), NO-NSAID 500 μM): 11%
NO-NSAID response rate % (average) (HUVEC cells; Dabrafenib (10 μM), NO-NSAID 0.1 μM): 20%
NO-NSAID response rate % (average) (HUVEC cells; Dabrafenib (10 μM), NO-NSAID 1 μM): 34%
NO-NSAID response rate % (average) (HUVEC cells; [4]): 33%
NO-NSAID response rate % (average) (HUVEC cells; Dabrafenib (10 μM), NO-NSAID 500 μM): 41%
NO-NSAID response rate % (average) (HUVEC cells; Everolimus (5 μM), NO-NSAID 0.1 μM): 10%
NO-NSAID response rate % (average) (HUVEC cells; Everolimus (5 μM), NO-NSAID 1 μM): −2%
NO-NSAID response rate % (average) (HUVEC cells; [5]): 1%
NO-NSAID response rate % (average) (HUVEC cells; Everolimus (5 μM), NO-NSAID 500 μM): 4%
activation at 100 µM (HUVEC cells; [2]): 70%
activation at 100 µM (HUVEC cells; Anlotinib (5 μM), NO-NSAID 100 μM): 67%
activation at 100 µM (HUVEC cells; Apatinib (10 μM), NO-NSAID 100 μM): 52%
activation at 100 µM (HUVEC cells; Axitinib (10 μM), NO-NSAID 100 μM): 39%
activation at 100 µM (HUVEC cells; [3]): 13%
activation at 100 µM (HUVEC cells; [4]): 33%
activation at 100 µM (HUVEC cells; Dacomitinib (5 μM), NO-NSAID 100 μM): 71%
activation at 100 µM (HUVEC cells; Encorafenib (5 μM), NO-NSAID 100 μM): 59%
activation at 100 µM (HUVEC cells; Erdafitinib (10 μM), NO-NSAID 100 μM): 45%
activation at 100 µM (HUVEC cells; [5]): 1%
activation at 100 µM (HUVEC cells; Famitinib (5 μM), NO-NSAID 100 μM): 69%
activation at 100 µM (HUVEC cells; Fruquintinib (10 μM), NO-NSAID 100 μM): 62%
activation at 100 µM (HUVEC cells; Gefitinib (10 μM), NO-NSAID 100 μM): 42%
activation at 100 µM (HUVEC cells; [6]): 30%
activation at 100 µM (HUVEC cells; [7]): 30%
activation at 100 µM (HUVEC cells; [8]): 74%
activation at 100 µM (HUVEC cells; [9]): 28%
activation at 100 µM (HUVEC cells; [10]): 74%
activation at 100 µM (HUVEC cells; [11]): 34%
activation at 100 µM (HUVEC cells; [12]): 76%
activation at 100 µM (HUVEC cells; [13]): 34%
activation at 100 µM (HUVEC cells; Vemurafenib (5 μM), NO-NSAID 100 μM): 58%
NO-NSAID response rate % (average) (HUVEC cells; Infigratinib (15 μM), NO-NSAID 0.1 μM): 23%
NO-NSAID response rate % (average) (HUVEC cells; Infigratinib (15 μM), NO-NSAID 1 μM): 39%
NO-NSAID response rate % (average) (HUVEC cells; [6]): 30%
NO-NSAID response rate % (average) (HUVEC cells; Infigratinib (15 μM), NO-NSAID 500 μM): 18%
NO-NSAID response rate % (average) (HUVEC cells; Lapatinib (5 μM), NO-NSAID 0.1 μM): 20%
NO-NSAID response rate % (average) (HUVEC cells; Lapatinib (5 μM), NO-NSAID 1 μM): 17%
NO-NSAID response rate % (average) (HUVEC cells; [7]): 30%
NO-NSAID response rate % (average) (HUVEC cells; Lapatinib (5 μM), NO-NSAID 500 μM): 28%
NO-NSAID response rate % (average) (HUVEC cells; Lenvatinib (10 μM), NO-NSAID 0.1 μM): 24%
NO-NSAID response rate % (average) (HUVEC cells; Lenvatinib (10 μM), NO-NSAID 1 μM): 15%
NO-NSAID response rate % (average) (HUVEC cells; [8]): 74%
NO-NSAID response rate % (average) (HUVEC cells; Lenvatinib (10 μM), NO-NSAID 500 μM): 14%
NO-NSAID response rate % (average) (HUVEC cells; Olmutinib (10 μM), NO-NSAID 0.1 μM): 25%
NO-NSAID response rate % (average) (HUVEC cells; Olmutinib (10 μM), NO-NSAID 1 μM): 38%
NO-NSAID response rate % (average) (HUVEC cells; [9]): 28%
NO-NSAID response rate % (average) (HUVEC cells; Olmutinib (10 μM), NO-NSAID 500 μM): 30%
NO-NSAID response rate % (average) (HUVEC cells; Regorafenib (5 μM), NO-NSAID 0.1 μM): 29%
NO-NSAID response rate % (average) (HUVEC cells; Regorafenib (5 μM), NO-NSAID 1 μM): 26%
NO-NSAID response rate % (average) (HUVEC cells; [10]): 74%
NO-NSAID response rate % (average) (HUVEC cells; Regorafenib (5 μM), NO-NSAID 500 μM): 26%
NO-NSAID response rate % (average) (HUVEC cells; Selumetinib (5 μM), NO-NSAID 0.1 μM): 35%
NO-NSAID response rate % (average) (HUVEC cells; Selumetinib (5 μM), NO-NSAID 1 μM): 33%
NO-NSAID response rate % (average) (HUVEC cells; [11]): 34%
NO-NSAID response rate % (average) (HUVEC cells; Selumetinib (5 μM), NO-NSAID 500 μM): 41%
NO-NSAID response rate % (average) (HUVEC cells; Sorafenib (5 μM), NO-NSAID 0.1 μM): 4%
NO-NSAID response rate % (average) (HUVEC cells; Sorafenib (5 μM), NO-NSAID 1 μM): 17%
NO-NSAID response rate % (average) (HUVEC cells; [12]): 76%
NO-NSAID response rate % (average) (HUVEC cells; Sorafenib (5 μM), NO-NSAID 500 μM): 16%
NO-NSAID response rate % (average) (HUVEC cells; Sunitinib (5 μM), NO-NSAID 0.1 μM): 19%
NO-NSAID response rate % (average) (HUVEC cells; Sunitinib (5 μM), NO-NSAID 1 μM): 20%
NO-NSAID response rate % (average) (HUVEC cells; [13]): 34%
NO-NSAID response rate % (average) (HUVEC cells; Sunitinib (5 μM), NO-NSAID 500 μM): 20%
